One series concerns trk1Δtrk2Δ yeast. Kind of series: Functional complementation of a protein with a small molecule assay (rescue broth microdilution). The format is cell-based, Saccharomyces cerevisiae. The note with it: for restoration of trk1Δtrk2Δ cell growth by ion transporting natural products: FIG. 3A. From the text:
Broth microdilution minimum inhibitory concentration (MIC) assay. The protocol for the MIC broth microdilution assay was adapted from the Clinical and Laboratory Standards Institute document M27-A2 and performed as previously described. Gray, K. C. et. al. Proc. Natl. Acad. Sci. U.S.A. 109, 2234-2239 (2012); Palacios, D. S. et al. J. Am. Chem. Soc. 129, 13804-13805 (2007).
Functional complementation of a protein with a small molecule assay. The protocol for the rescue broth microdilution assay was conducted as described in the MIC assay above with the following additions: trk1atrk2Δ yeast were grown in high potassium (100 mM) YPAD liquid media overnight and transferred to normal potassium YPAD liquid media containing vehicle or the indicated concentration of AmB.

Series [1] concerns small molecule-rescued trk1Δtrk2Δ cells versus wild type. Kind of series: Probing sensitivities to known chemical inhibitors assay. The format is cell-based, Saccharomyces cerevisiae. The note with it: for optimum rescue concentration for trk1Δtrk2Δ cells: FIG. 3E legend; for sensitivity of AmB-rescued trk1Δtrk2Δ cells versus AmB-treated wild type to the inhibitor: AmB rescue, OD600 after 24 hours, FIGS. 3B-3D. As to the method: Probing sensitivities to known chemical inhibitors assay. Overnight cultures were grown as described in the MIC assay. Prior to harvesting cells, small molecules AmB, nystatin A1 (Riedel-de-Haen), candicidin (TOKU-E), or mepartricin (Santa Cruz Biotechnology) and chemical inhibitors nocodazole (Sigma-Aldrich), ebselen (Cayman Chemical), or bafilomycin BI (Santa Cruz Biotechnology were prepared as stock solutions in DMSO. Saturated cell cultures were centrifuged for 5 minutes at 1000×g. The supernatant was poured off, and cells were resuspended in sterile MilliQ water. Cells were centrifuged again, and supernatant was poured off. The wash step was repeated. The supernatant was poured off, and cells were resuspended in normal potassium YPAD. Cells were diluted with normal potassium YPAD to an OD600 of 0.01. Next, an appropriate volume of AmB, nystatin A1, candicidin, or mepartricin was added to give a final rescuing concentration of 125 nM, 1000 nM, 8 nM, and 8 nM, respectively. A control was prepared by adding the corresponding volume of DMSO to trk1Δtrk2Δ cells. 195 μL of WT+small molecule, 195 μL of trk1Δtrk2Δ+small molecule, and 195 μL of trk1Δtrk2Δ+DMSO were added to a 96 well plate. Next, 5 μL of DMSO or chemical inhibitor was added to each well, with each concentration tested in triplicate for both WT and trk1Δtrk2Δ . The plate was covered and incubated at 30° C. for 24 hours. A BioTek Synergy H1 Hybrid Reader was used to measure the OD600. Utilizing GraphPad PRISM, data were fitted by nonlinear regression, inhibition dose response, variable slope (four parameters) to yield EC50 values with SEM. For statistical analysis, EC50 values from the two treatment groups were compared by unpaired t-test.

The next series concerns trk1Δtrk2Δ cells. Kind of series: 86Rb+ uptake assay. The note with it: 3 μM; FIG. 2F. Format: cell-based, Saccharomyces cerevisiae. The procedure: ^86Rb^+ uptake assay. The procedure for 86Rb uptake was adapted from Mulet, J. M. et al. Mol. Cell. Biol. 19, 3328-3337 (1999). Overnight yeast cultures were grown as described above. The supernatant was poured off, and the cells were resuspended in sterile water. This wash was repeated two more times. The cells were then resuspended in 40 mL of the potassium starvation/uptake buffer (50 mM succinic acid, 2% glucose, adjusted to pH 5.5 with Tris). After 3 hour incubation in the potassium starvation buffer, cells were centrifuged and washed twice with sterile water. Cells were resuspended in 1 mL of the potassium starvation/uptake buffer. Cell concentration was determined using an INCYTO®; Neubauer disposable hemocytometer, and wild type S. cerevisiae and trk1Δtrk2Δ cells were diluted to the same cell density. 700 μL of the yeast suspension was added to a 1.5 mL Eppendorf tube. After a 5 minute pre-incubation in the potassium starvation/uptake medium, AmB or C35deOAmB was added (final concentration 3 μM) as a DMSO solution. ^86RbCl (1.1 μCi) was then added to the reaction mixtures. Reaction mixtures were vortexed to ensure a homogeneous solution. […] Moist filters were transferred to plastic vials for measuring radioactivity. Radioactivity was monitored using a Perkin Elmer Wizard automatic gamma counter. […]

For series [2], the system named is CuFi-1 epithelial monolayers (CFTR-deficient human lung epithelia). Kind of series: Airway surface liquid (ASL) height studies by confocal fluorescence microscopy. The format is cell-based. As to the method:
Human cell lines and growth conditions. NuLi and CuFi-1 cells were cultured at the air-liquid interface as previously described, using a 1:1 mixture of DMEM: Ham's F-12 supplemented with 2% v/v Ultroser G (Crescent Chemical). Zabner, J. et al. Am. J. Physiol. Lung Cell. Mol. Physiol. 284, […]-[…] (2003). The membrane supports used were Millicell 0.4 μm PCF inserts (Millipore PIHP01250) for Ussing chamber studies, Corning Costar 0.4 μm Transwell Clear Polyester Membrane inserts (Corning 3470) for rotational mucus transport studies, and Millicell 1.0 μm PCF inserts (Millipore PIRP15R48) for ASL studies. These membranes were allowed to mature at an air-liquid interface for a minimum of 14 days to reach full differentiation. Airway surface liquid (ASL) height studies. ASL height was studied using an established fluorescent dye assay. Worthington, E. N. et al. Methods Mol. Biol. 742, 77-92 (2011); Myerburg. M. M. et al. Am. J. Respir. Cell. Mol. Biol. 42, 676-684 (2010). Mature, differentiated membranes were grown on Millicell […] polyethylene terephthalate hanging cell culture inserts. Wild type (NuLi) lung epithelia were treated with perfluorocarbon (FC-72) vehicle, and CuFi epithelia were treated with vehicle or 500 nM AmB and incubated for 24 hours at 37° ° C. On the day of imaging. 2.5 μL of a 70 kDa Texas Red-dextran conjugate (Molecular Probes) solution in PBS was added to the apical side of the membranes, followed by 100 μL of FC-770 to prevent evaporation. These were placed on 100 μL of PBS on a 10 mm glass bottom Fluorodish for imaging (World Precision Instruments). Membranes were imaged immediately after dye addition and again at 24 hours to examine dye absorption. Three Z-stack images per membrane in biological n=6 were taken on an Zeiss LSM700 confocal microscope at 40× oil immersion. These images were analyzed using ImageJ to determine the area of fluorescence in the left hand 200-micron width of each image. Images were converted to 8-bit, Gaussian Blur was applied, and made binary. The parameters for Analyze Particles were particles from 1-Infinity μm^2 in size and from 0%-100% circularity.

In a further series the test system is yeast. The note with it: cited from earlier work.
Series [3] deals with AmB ion channel in trk1Δtrk2Δ cells. The note with it: FIG. 2E. As to the method: Tetraethylammonium block assay. The protocol for the tetraethylammonium block assay was conducted as described in the functional complementation assay above with the addition of 125 nM AmB and the indicated concentration of tetraethylammonium to the normal potassium YPAD media and the indicated concentration of tetraethylammonium to the high potassium (100 mM) YPAD media.

Consider candicidin, for which the “restoration of trk1Δtrk2Δ cell growth by ion transporting natural products” value (“restoration of trk1Δtrk2Δ cell growth” for short) with trk1Δtrk2Δ yeast is listed as “Vigorous restoration”. For the same molecule, in series [1], the “optimum rescue concentration for trk1Δtrk2Δ cells” value came out at 0.008 µM.

For `COC(=O)Nc1nc2ccc(C(=O)c3cccs3)cc2[nH]1` [nocodazole], in series [1], the “sensitivity of AmB-rescued trk1Δtrk2Δ cells versus AmB-treated wild type to the inhibitor” value is “equally sensitive”.

On to C35-deoxy amphotericin B [C35deOAmB], for which the “restoration of growth in trk1Δtrk2Δ cells” value in the series on trk1Δtrk2Δ yeast (any tested concentration, FIG. 2D) is on record as “failed to restore growth”. Also, the “86Rb+ uptake in trk1Δtrk2Δ cells” value in the series on trk1Δtrk2Δ cells is “no uptake”. Besides, the “ASL height of CuFi-1 epithelia, compound added apically” value in series [2] (500 nM AmB, 24 hours, FIGS. 5A, 5B) is on record as “no increase in ASL height”. For the same molecule, the fungicidal activity result with yeast is reported as “potent fungicidal activity”.

As to `CO/C1=C\C(C)=C\[C@@H](C)[C@@H](O)[C@@H](C)C/C(C)=C/C=C/[C@H](OC)[C@@H]([C@@H](C)[C@@H](O)[C@H](C)[C@@]2(O)C[C@@H](O)[C@H](C)[C@@H](C(C)C)O2)OC1=O` [bafilomycin], the “sensitivity of AmB-rescued trk1Δtrk2Δ cells versus AmB-treated wild type to the inhibitor” value in series [1] is “exceptionally sensitive”.

Consider `CC[N+](CC)(CC)CC` [tetraethylammonium], for which the “effect on functional complementation observed with AmB” value in series [3] (125 nM AmB, normal potassium (10 mM KCl), dose-dependent) is “inhibited the functional complementation”. Further, the “general toxicity to trk1Δtrk2Δ cells” value in series [3] (permissive conditions (100 mM KCl)) is recorded as “without causing general toxicity”.

For the molecule mepartricin, the “restoration of trk1Δtrk2Δ cell growth” value with trk1Δtrk2Δ yeast is recorded as “Vigorous restoration”. In addition, in series [1], the “optimum rescue concentration for trk1Δtrk2Δ cells” value is 0.008 µM.

Regarding `C[C@@H]1[C@H](O)[C@@H](C)/C=C/C=C/CC/C=C/C=C/C=C/C=C/C(O[C@H]2O[C@H](C)[C@@H](O)[C@H](N)[C@@H]2O)CC2O[C@](O)(CC(O)C(O)CCC(O)CC(O)CC(O)CC(=O)O[C@H]1C)CC(O)C2C(=O)O` (stereo partly drawn) [nystatin], the “restoration of trk1Δtrk2Δ cell growth” value with trk1Δtrk2Δ yeast is “Vigorous restoration”. Moreover, the “optimum rescue concentration for trk1Δtrk2Δ cells” value in series [1] turned out to be 1 µM.

`CCCCNc1cc(C(=O)O)cc(S(N)(=O)=O)c1Oc1ccccc1` [bumetanide]: the “effect on AmB-mediated ASL restoration” value in series [2] (basolateral addition, inhibits NKCC, FIG. 5D) was “blocked”.

Source of the values: patent US20240277743A1, “RESTORING PHYSIOLOGY WITH SMALL MOLECULE MIMICS OF MISSING PROTEINS” (The Board of Trustees Of The University Of Illinois, priority 2014, published 2024).
